Data as given in the NIST ThermoML archive (doi:10.1021/je060271a).
± gives the expanded uncertainty stated by the source.

Conditions: 323.15 K, Liquid, Vibrating tube method

CCCCC(=O)OCC(COC(=O)CCCC)(COC(=O)CCCC)COC(=O)CCCC [pentaerythritol tetrapentanoate]
Conditions | mass density [kg/m3]
5507 kPa | 998.5 ± 1.2
5515.1 kPa | 998.5 ± 1.2
5521.3 kPa | 998.4 ± 1.2
5527 kPa | 998.5 ± 1.2
5546.7 kPa | 998.6 ± 1.2
5564 kPa | 998.6 ± 1.2
5581.9 kPa | 998.5 ± 1.2
5599.5 kPa | 998.6 ± 1.2
5620.8 kPa | 998.5 ± 1.2
5638.1 kPa | 998.7 ± 1.2
5660 kPa | 998.6 ± 1.2
5678.2 kPa | 998.6 ± 1.2
5695.6 kPa | 998.6 ± 1.2
5714.3 kPa | 998.7 ± 1.2
5736.6 kPa | 998.6 ± 1.2
5755.1 kPa | 998.7 ± 1.2
5774.3 kPa | 998.6 ± 1.2
5797.1 kPa | 998.8 ± 1.2
5816.3 kPa | 998.9 ± 1.2
5836 kPa | 998.8 ± 1.2
5854.9 kPa | 998.8 ± 1.2
5878.6 kPa | 998.8 ± 1.2
5898.5 kPa | 998.8 ± 1.2
5917.1 kPa | 998.8 ± 1.2
5937.2 kPa | 998.9 ± 1.2
5961 kPa | 998.8 ± 1.2
5982 kPa | 998.9 ± 1.2
6002.4 kPa | 998.9 ± 1.2
6023.3 kPa | 998.8 ± 1.2
6048 kPa | 998.8 ± 1.2
6068.6 kPa | 999 ± 1.2
6091.7 kPa | 998.8 ± 1.2
6114.3 kPa | 999 ± 1.2
6135.5 kPa | 998.8 ± 1.2
6162.7 kPa | 998.9 ± 1.2
6183.1 kPa | 998.9 ± 1.2
6205.3 kPa | 999 ± 1.2
6226.8 kPa | 999.1 ± 1.2
6253.6 kPa | 999.1 ± 1.2
6278.3 kPa | 999 ± 1.2
6299 kPa | 999 ± 1.2
6322 kPa | 999.1 ± 1.2
6349.8 kPa | 999.1 ± 1.2
6371.6 kPa | 999.1 ± 1.2
6395.8 kPa | 999.1 ± 1.2
6420.4 kPa | 999 ± 1.2
6446 kPa | 999.2 ± 1.2
6472.8 kPa | 999.2 ± 1.2
6495.8 kPa | 999.3 ± 1.2
6521.7 kPa | 999.2 ± 1.2
6549.3 kPa | 999.2 ± 1.2
6572.1 kPa | 999.2 ± 1.2
6596.7 kPa | 999.3 ± 1.2
6622.6 kPa | 999.3 ± 1.2
6652.8 kPa | 999.2 ± 1.2
6676.5 kPa | 999.3 ± 1.2
6703.4 kPa | 999.2 ± 1.2
6735.7 kPa | 999.4 ± 1.2
6761.8 kPa | 999.4 ± 1.2
6788.6 kPa | 999.5 ± 1.2
6816.1 kPa | 999.4 ± 1.2
6841.8 kPa | 999.4 ± 1.2
6873.6 kPa | 999.5 ± 1.2
6900.5 kPa | 999.4 ± 1.2
6928.9 kPa | 999.6 ± 1.2
6961.3 kPa | 999.6 ± 1.2
6989.5 kPa | 999.5 ± 1.2
7017 kPa | 999.6 ± 1.2
7044.4 kPa | 999.4 ± 1.2
7079.5 kPa | 999.6 ± 1.2
7110.4 kPa | 999.7 ± 1.2
7137.5 kPa | 999.7 ± 1.2
7169.3 kPa | 999.6 ± 1.2
7204.5 kPa | 999.8 ± 1.2
7233.8 kPa | 999.7 ± 1.2
7265.1 kPa | 999.7 ± 1.2
7295.5 kPa | 999.8 ± 1.2
7332.3 kPa | 999.8 ± 1.2
7362 kPa | 999.7 ± 1.2
7393.2 kPa | 999.8 ± 1.2
7425.1 kPa | 999.9 ± 1.2
7462.4 kPa | 999.8 ± 1.2
7497 kPa | 1000 ± 1.2
7529.6 kPa | 999.9 ± 1.2
7562.2 kPa | 999.9 ± 1.2
7602.1 kPa | 1000 ± 1.2
7634.4 kPa | 999.9 ± 1.2
7668.9 kPa | 1000 ± 1.2
7702.7 kPa | 1000 ± 1.2
7742.2 kPa | 1000 ± 1.2
7778.3 kPa | 1000.1 ± 1.2
7818.5 kPa | 1000.1 ± 1.2
7854.9 kPa | 1000.1 ± 1.2
7890.7 kPa | 1000.1 ± 1.2
8008.7 kPa | 1000.2 ± 1.2
8045.6 kPa | 1000.3 ± 1.2
8085.8 kPa | 1000.3 ± 1.2
8132.2 kPa | 1000.2 ± 1.2
8166 kPa | 1000.4 ± 1.2
8197.3 kPa | 1000.4 ± 1.2
8234.5 kPa | 1000.4 ± 1.2
8265.2 kPa | 1000.4 ± 1.2
8297.6 kPa | 1000.5 ± 1.2
8334.6 kPa | 1000.5 ± 1.2
8366.3 kPa | 1000.6 ± 1.2
8398.2 kPa | 1000.5 ± 1.2
8437.2 kPa | 1000.5 ± 1.2
8471.2 kPa | 1000.5 ± 1.2
8502.6 kPa | 1000.5 ± 1.2
8536.2 kPa | 1000.6 ± 1.2
8575.9 kPa | 1000.5 ± 1.2
8609.5 kPa | 1000.6 ± 1.2
8644.9 kPa | 1000.7 ± 1.2
8686.6 kPa | 1000.7 ± 1.2
8721.6 kPa | 1000.7 ± 1.2
8763.3 kPa | 1000.7 ± 1.2
8798.5 kPa | 1000.8 ± 1.2
8835.2 kPa | 1000.8 ± 1.2
8871.2 kPa | 1000.7 ± 1.2
8918.5 kPa | 1000.9 ± 1.2
8948.2 kPa | 1000.9 ± 1.2
8992.3 kPa | 1000.9 ± 1.2
9029 kPa | 1000.9 ± 1.2
9074.5 kPa | 1000.9 ± 1.2
9112.8 kPa | 1001 ± 1.2
9150.4 kPa | 1001.1 ± 1.2
9188.8 kPa | 1001.1 ± 1.2
9235.3 kPa | 1001 ± 1.2
9275.3 kPa | 1001.2 ± 1.2
9315.5 kPa | 1001.1 ± 1.2
9364.1 kPa | 1001.1 ± 1.2
9405.6 kPa | 1001.2 ± 1.2
9494 kPa | 1001.2 ± 1.2
9537.2 kPa | 1001.2 ± 1.2
9589.3 kPa | 1001.2 ± 1.2
9624.3 kPa | 1001.3 ± 1.2
9656.6 kPa | 1001.3 ± 1.2
9695.6 kPa | 1001.3 ± 1.2
9727.6 kPa | 1001.5 ± 1.2
9873 kPa | 1001.5 ± 1.2
9976.5 kPa | 1001.6 ± 1.2
10018 kPa | 1001.6 ± 1.2
10129 kPa | 1001.8 ± 1.2
10165 kPa | 1001.7 ± 1.2
10208 kPa | 1001.8 ± 1.2
10280 kPa | 1001.7 ± 1.2
10325 kPa | 1001.8 ± 1.2
10362 kPa | 1001.9 ± 1.2
10400 kPa | 1001.9 ± 1.2
10447 kPa | 1001.9 ± 1.2
10486 kPa | 1001.9 ± 1.2
10527 kPa | 1002 ± 1.2
10577 kPa | 1001.8 ± 1.2
10620 kPa | 1002.1 ± 1.2
10661 kPa | 1002 ± 1.2
10691 kPa | 1002.1 ± 1.2
10711 kPa | 1002.1 ± 1.2
10731 kPa | 1002.2 ± 1.2
10755 kPa | 1002.1 ± 1.2
10775 kPa | 1002 ± 1.2
